The target in experiment [1] is T1, Aldo-keto reductase family 1 member A1 (Homo sapiens, UniProt P14550).
T1 sequence (P14550 whole entry): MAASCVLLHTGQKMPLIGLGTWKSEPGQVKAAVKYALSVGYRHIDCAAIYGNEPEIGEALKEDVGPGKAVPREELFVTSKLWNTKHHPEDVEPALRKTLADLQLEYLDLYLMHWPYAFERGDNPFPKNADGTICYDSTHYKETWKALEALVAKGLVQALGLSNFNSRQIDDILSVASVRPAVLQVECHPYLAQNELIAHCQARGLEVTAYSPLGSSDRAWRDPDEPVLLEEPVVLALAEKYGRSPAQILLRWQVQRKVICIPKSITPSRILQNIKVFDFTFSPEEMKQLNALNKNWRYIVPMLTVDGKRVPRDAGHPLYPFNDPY
As to the kind of experiment: Inhibition of human recombinant AKR1A1 expressed in Escherichia coli BL21 cells using D-glucuronate as substrate by spectrophotometry.

The target in experiment [2] is T2, Aldo-keto reductase family 1 member B1 (Homo sapiens, UniProt P15121). As to the kind of experiment: Inhibition of human recombinant AKR1B1 expressed in Escherichia coli BL21 cells using pyridine-3-aldehyde as substrate by spectrophotometry.
The target of experiment [3] is Aldo-keto reductase family 1 member B10 (Homo sapiens, UniProt O60218). As to the kind of experiment: Inhibition of recombinant N-His6-tagged AKR1B10 expressed in Escherichia coli BL21 cells using pyridine-3-aldehyde as substrate by spectrophotometry.
Sequence of Aldo-keto reductase family 1 member B10 (O60218 whole entry): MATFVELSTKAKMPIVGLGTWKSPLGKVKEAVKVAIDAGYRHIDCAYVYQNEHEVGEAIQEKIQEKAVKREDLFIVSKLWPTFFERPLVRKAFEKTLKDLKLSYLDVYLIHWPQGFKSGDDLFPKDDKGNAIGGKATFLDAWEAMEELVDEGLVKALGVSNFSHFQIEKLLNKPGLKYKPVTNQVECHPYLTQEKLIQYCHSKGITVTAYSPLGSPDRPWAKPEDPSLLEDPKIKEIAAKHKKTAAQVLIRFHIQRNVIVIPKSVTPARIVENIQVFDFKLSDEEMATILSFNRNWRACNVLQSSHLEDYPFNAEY
The target of experiment [4] is T2, Aldo-keto reductase family 1 member B1.
Description: Noncompetitive inhibition of human recombinant AKR1B1 using pyridine-3-aldehyde as substrate by Lineweaver-Burk plot analysis

19 compounds from ChEMBL document CHEMBL1944621, “Design, synthesis, and biological evaluation of novel (1-thioxo-1,2,3,4-tetrahydro-β-carbolin-9-yl)acetic acids as selective inhibitors for AKR1B1” (Bioorg Med Chem, 2012) can be followed below.

For orientation: IC50 means the concentration that inhibits the measured activity by half. With `O=C(O)Cn1c2c(c3ccccc31)CCN(Cc1ccccc1)C2=S`, the half-maximal inhibitory concentration (IC50) worked out at 9.5 µM in experiment [1], 0.22 µM in experiment [2] and 5.1 µM in experiment [3].
For `O=C(O)Cn1c2c(c3cc(Cl)ccc31)CCN(Cc1ccccc1)C2=S`, the IC50 was found to be 15 µM in experiment [1], 0.35 µM in experiment [2] and 1.4 µM in experiment [3].
For `O=C(O)Cn1c2c(c3ccc(Cl)cc31)CCN(Cc1ccccc1)C2=S` the same measures were 21 µM, 0.24 µM and 1.4 µM.
As to `O=C(O)Cn1c2c(c3ccccc31)CCN(Cc1ccc(Br)cc1F)C2=S`, the IC50 amounted to 4.2 µM in experiment [2] and 0.68 µM in experiment [3].
Turning to `O=C(O)Cn1c2c(c3c(F)cc(F)cc31)CCN(CCc1ccccc1)C2=S`, the IC50 in experiment [2] turned out to be 1.8 µM; in experiment [3], 0.4 µM.
For `O=C(O)Cn1c2c(c3cc(Br)ccc31)CCN(Cc1ccccc1)C2=S`, the figures for the IC50 in experiment [1], in experiment [2] and in experiment [3] were 11 µM, 0.32 µM and 1.4 µM, respectively.
Consider `O=C(O)Cn1c2c(c3c(F)cc(F)cc31)CCN(Cc1ccccc1)C2=S`, for which the IC50 worked out at 4.7 µM in experiment [1], 1.3 µM in experiment [2] and 0.48 µM in experiment [3].
Consider `O=C(O)Cn1c2c(c3c(Cl)cc(Cl)cc31)CCN(Cc1ccccc1)C2=S`, for which the results for the IC50 in experiment [1], in experiment [2] and in experiment [3] were 10 µM, 0.19 µM and 6.1 µM, respectively.
With `O=C(O)Cn1c2c(c3ccccc31)CCN(Cc1ccc(Br)cc1)C2=S`, the IC50 in experiment [1] stood at 14 µM; in experiment [2], 5.9 µM; in experiment [3], 0.85 µM.
For the compound `O=C(O)Cn1c2c(c3cc(C(=O)O)ccc31)CCN(Cc1ccccc1)C2=S`, the IC50 came out at 53 µM in experiment [1], 0.17 µM in experiment [2] and 40 µM in experiment [3]. The compound further registered a Kii in experiment [4] of 220 nM. Moreover, the Kis in experiment [4] came out at 55 nM.
Take `CC(C)c1ccc2c(c1)c1c(n2CC(=O)O)C(=S)N(Cc2ccccc2)CC1`: the IC50 in experiment [1] is 16 µM; in experiment [2], 0.2 µM; in experiment [3], 3.4 µM.
For `O=C(O)Cn1c2c(c3ccccc31)CCN(Cc1ccc(C(F)(F)F)cc1)C2=S`, the IC50 in experiment [2] was determined as 14 µM; in experiment [3] it was 3.8 µM.
With `O=C(O)Cn1c2c(c3cc(F)ccc31)CCN(Cc1ccc(Br)cc1F)C2=S`, the IC50 in experiment [2] came to 1.7 µM; in experiment [3], 0.28 µM.
With `O=C(O)Cn1c2c(c3cc(F)ccc31)CCN(Cc1ccc(C(F)(F)F)cc1)C2=S`, the IC50 stood at 10 µM in experiment [2] and 1.6 µM in experiment [3].
As for `O=C(O)Cn1c2c(c3cc(F)ccc31)CCN(Cc1ccccc1)C2=S`, the IC50 in experiment [1] came out at 19 µM; in experiment [2] it was 0.23 µM; in experiment [3] it was 3.3 µM.
For the compound `O=C(O)Cn1c2c(c3cc(I)ccc31)CCN(Cc1ccccc1)C2=S`, the concentration for half-maximal inhibition (IC50) in experiment [1] is 11 µM; in experiment [2] it was 0.19 µM; in experiment [3], 1.4 µM.
With `O=C(O)Cn1c2c(c3ccccc31)CCN(c1ccccc1)C2=S`, the IC50 in experiment [2] was determined as 31 µM; in experiment [3], 21 µM.
For the compound `COc1ccc2c(c1)c1c(n2CC(=O)O)C(=S)N(Cc2ccccc2)CC1`, the values for the IC50 in experiment [1], in experiment [2] and in experiment [3] were 12 µM, 0.15 µM and 2.9 µM, respectively. In addition, the Kii in experiment [4] was 180 nM. Moreover, the Kis in experiment [4] is 79 nM.
For the compound `O=C(O)Cn1c2c(c3cc(O)ccc31)CCN(Cc1ccccc1)C2=S`, the IC50 turned out to be 0.2 µM in experiment [2] and 1.9 µM in experiment [3].
